Measurements taken from US20210369698A1 (Attillaps Holdings, priority 2019, published 2021).

Tested on: Demodex mites
Conditions: 10% chloroquine in water; in vitro; water control 44.8 hours
Method: In vitro efficacy and mite lifetimes: Relative efficacy of various formulations are evaluated with a demodex survival time experiments. FIG. 3 tabulates demodex survival time, expressed in terms of LT50 (time at which 50% of demodex mites are killed) and/or average minutes to death for various active agents.

CCN(CC)CCCC(C)Nc1ccnc2cc(Cl)ccc12 (stereo not shown) [chloroquine, Chloroquine]
LT50 (time at which 50% of demodex mites are killed): 31.6 h
